Source: US20240368668A1, “SUBSTRATES AND BIOMARKERS OF ADAMTS7” (The Broad Institute, Inc., priority 2021, published 2024)
Square brackets hold non-standard residues; d marks the D form. Ends that are not written are not given here. Met(O) = CS(=O)CC[C@H](N)C(=O)O

System: mouse ADAMTS7
Assay: TMT10 TAILS N-terminomics, HUVEC experiment (process replicates, trypsin/AspN digest)
Format: cell-based, human
Settings: HUVEC TAILS HC; log fold change of N-terminal peptide, Ad-mADAMTS7 WT over EQ
In short: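 Full-length mouse ADAMTS7 (WT or E373Q mutant, C-terminal 3xFLAG) or luciferase was transduced via adenovirus, 50 MOI, into HCA-SMC (SMC1, SMC2) or HUVEC. SMC1: pooled media, technical triplicates 400 ug; SMC2: process triplicates 300 ug; HUVEC: process triplicates 200 ug, bFGF2 10 ng/ml.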

Substance | logFC.mWT.over.mEQ
ASMT_321 (LSSAGFR; listed as Homo sapiens) | 2.56
BICD1_280 (NNDDKMNGHIHGPLVKLNGDYR; listed as Homo sapiens) | 1.31
CLU_267 (FQHPPTEFIR; listed as Homo sapiens) | 1.64
CTGF_173 (TVVGPALAAYR; listed as Homo sapiens) | 3.39
CTGF_174 (VVGPALAAYR; listed as Homo sapiens) | 2.44
FN1_1624 (LVQTAVTTIPAPT; listed as Homo sapiens) | 1.56
FN1_1743 (WESPQGQVSR; listed as Homo sapiens) | 3.05
LTBP2_129 (QQQPAPR; listed as Homo sapiens) | 5.32
LTBP2_253 (GEGTLAR; listed as Homo sapiens) | 2.99
LTBP3_164 (LSTGALPPLAPEG; listed as Homo sapiens) | 2.21
LTBP3_205 (HAAFLVPLGPGQISA; listed as Homo sapiens) | 2.54
LTBP3_221 (VQAPPPVVNVR; listed as Homo sapiens) | 3.11
MCFD2_55 (HLEGVINKPEA; listed as Homo sapiens) | 0.99
PSAP_301 (LVEPIKKH; listed as Homo sapiens) | 2.44
PTBP1_376 (AAAAAGR; listed as Homo sapiens) | 1.06
PZP_578 (HAHLQVAAAPQSLCALR; listed as Homo sapiens) | 2.45
THBS1_630 (FGQGVEHATANK; listed as Homo sapiens) | 2.28
UQCRH_76 (HGSPNNSERAMRAVGE[Met(O)]CKGPGAAR; listed as Homo sapiens) | 1.38
ZYX_244 (PVSLANTQPR; listed as Homo sapiens) | 1.02
